# Test results: the supplement of paper PMC4862054
# What was measured:
# Conditions in all cases: incubation time: 72 h
# BT-474 [1] = experiment: normalised response (% of control), CellTiter-Glo; higher = more viable cells (100 = DMSO, 0 = benzethonium chloride kill control)
# Outline: (§1)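 Breast cancer cell lines (20 µl suspension) were seeded into 384-well plates holding compound at 5 concentrations in 10-fold steps over a compound-specific 10,000-fold range, then incubated 72 h. CellTox Green fluorescence (485/520 nm) was read first, then CellTiter-Glo luminescence after 10 min at room temperature. Each plate was normalised to 0.1 % DMSO (100) and a positive kill control (0). Each value is the normalised signal at a single concentration of the series.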
# HCC1937 [2] = experiment: as above
# Outline: as §1
# HDQ-P1 [3] = experiment: as above
# Outline: as §1
# MFM-223 [4] = experiment: as above
# Outline: as §1
# MCF-10A [5] = experiment: as above
# Outline: as §1
# MDA-MB-468 [6] = experiment: as above
# Outline: as §1
# MDA-MB-453 [7] = experiment: as above
# Outline: as §1
# CAL-85-1 [8] = experiment: as above
# Outline: as §1
# MDA-MB-436 [9] = experiment: as above
# Outline: as §1
# HCC1599 [10] = experiment: as above
# Outline: as §1
# BT-549 [11] = experiment: as above
# Outline: as §1
# CAL-120 [12] = experiment: as above
# Outline: as §1
# SK-BR-3 = experiment: as above
# Outline: as §1
# MDA-MB-231 [13] = experiment: as above
# Outline: as §1
# CAL-51 [14] = experiment: as above
# Outline: as §1
# Hs578T [15] = experiment: as above
# Outline: as §1
# CAL-148 [16] = experiment: as above
# Outline: as §1
# DU-4475 [17] = experiment: as above
# Outline: as §1
# HCC1143 [18] = experiment: as above
# Outline: as §1
# BT-474 [19] = experiment: normalised response (% of control), CellTox Green; higher = less cell death (100 = DMSO, 0 = benzethonium chloride kill control)
# Outline: as §1
# HCC1937 [20] = experiment: as above
# Outline: as §1
# MFM-223 [21] = experiment: as above
# Outline: as §1
# MCF-10A [22] = experiment: as above
# Outline: as §1
# MDA-MB-468 [23] = experiment: as above
# Outline: as §1
# MDA-MB-453 [24] = experiment: as above
# Outline: as §1
# CAL-85-1 [25] = experiment: as above
# Outline: as §1
# MDA-MB-436 [26] = experiment: as above
# Outline: as §1
# HCC1599 [27] = experiment: as above
# Outline: as §1
# BT-549 [28] = experiment: as above
# Outline: as §1
# CAL-120 [29] = experiment: as above
# Outline: as §1
# MDA-MB-231 [30] = experiment: as above
# Outline: as §1
# CAL-51 [31] = experiment: as above
# Outline: as §1
# Hs578T [32] = experiment: as above
# Outline: as §1
# CAL-148 [33] = experiment: as above
# Outline: as §1
# DU-4475 [34] = experiment: as above
# Outline: as §1
# HCC1143 [35] = experiment: as above
# Outline: as §1
# HDQ-P1 [36] = experiment: as above
# Outline: as §1
SMILES,normalised response (BT-474 [1]),normalised response (HCC1937 [2]),normalised response (HDQ-P1 [3]),normalised response (MFM-223 [4]),normalised response (MCF-10A [5]),normalised response (MDA-MB-468 [6]),normalised response (MDA-MB-453 [7]),normalised response (CAL-85-1 [8]),normalised response (MDA-MB-436 [9]),normalised response (HCC1599 [10]),normalised response (BT-549 [11]),normalised response (CAL-120 [12]),normalised response (SK-BR-3),normalised response (MDA-MB-231 [13]),normalised response (CAL-51 [14]),normalised response (Hs578T [15]),normalised response (CAL-148 [16]),normalised response (DU-4475 [17]),normalised response (HCC1143 [18]),normalised response (BT-474 [19]),normalised response (HCC1937 [20]),normalised response (MFM-223 [21]),normalised response (MCF-10A [22]),normalised response (MDA-MB-468 [23]),normalised response (MDA-MB-453 [24]),normalised response (CAL-85-1 [25]),normalised response (MDA-MB-436 [26]),normalised response (HCC1599 [27]),normalised response (BT-549 [28]),normalised response (CAL-120 [29]),normalised response (MDA-MB-231 [30]),normalised response (CAL-51 [31]),normalised response (Hs578T [32]),normalised response (CAL-148 [33]),normalised response (DU-4475 [34]),normalised response (HCC1143 [35]),normalised response (HDQ-P1 [36])
Cc1nc(C(=O)NCC(=O)O)c(O)c2ccc(Oc3ccccc3)cc12 [FG-4592] (1000 nM),106%,101%,116%,102%,113%,103%,98.6%,105%,100%,117%,102%,102%,110%,102%,119%,109%,97.2%,103%,109%,101%,110%,103%,94.2%,86%,111%,101%,108%,93.5%,97.3%,103%,103%,112%,85.2%,93%,107%,110%,
CN[C@@H](C)C(=O)N[C@H]1CN(C(=O)CC(C)C)CC[C@H]2CC[C@@H](C(=O)NC(c3ccccc3)c3ccccc3)N2C1=O [AT-406] (1000 nM),24.8%,94%,83.1%,101%,107%,71.3%,78.5%,63.3%,99.1%,106%,59.7%,85.6%,99.6%,38.8%,98.2%,95.7%,82.4%,101%,95.6%,89.7%,101%,54.2%,109%,109%,94.9%,24%,86.1%,93.1%,53.4%,76.4%,-42.1%,97.2%,,55.1%,101%,107%,79.6%
CC(C)(C)c1nc(-c2cccc(NS(=O)(=O)c3c(F)cccc3F)c2F)c(-c2ccnc(N)n2)s1 [Dabrafenib] (250 nM),97.9%,105%,115%,107%,125%,92%,92.3%,99.8%,106%,107%,91%,36.6%,105%,106%,129%,90.8%,101%,8.24%,106%,99.1%,106%,103%,94.2%,117%,105%,110%,101%,100%,82.7%,-30.1%,107%,110%,,106%,83%,111%,114%
CC[C@H](CO)Nc1nc(NCc2ccccc2)c2ncn(C(C)C)c2n1 [Seliciclib] (1000 nM),96.9%,105%,101%,109%,95.3%,110%,115%,112%,107%,111%,95.8%,97.4%,106%,104%,80.4%,109%,104%,101%,103%,101%,125%,95.6%,101%,,102%,95.5%,84.6%,103%,117%,101%,114%,101%,86.4%,106%,99.2%,107%,92.7%
CC1(COc2ccc3c(c2)ncn3-c2ccc3cccc(N4CCC(N)CC4)c3n2)COC1 [Crenolanib] (1000 nM),111%,100%,108%,102%,113%,101%,114%,117%,103%,110%,82.5%,86.7%,123%,122%,86.2%,96.4%,109%,96.2%,101%,91.4%,51.6%,100%,108%,,112%,104%,50.8%,94.7%,71.2%,99.5%,124%,85.9%,83.4%,97.7%,101%,99%,71%
CO[C@@H]1[C@H](N(C)C(=O)c2ccccc2)C[C@H]2O[C@]1(C)n1c3ccccc3c3c4c(c5c6ccccc6n2c5c31)C(=O)NC4 [Midostaurin] (10 nM),98.6%,95.3%,97.5%,96.7%,96.3%,106%,96.7%,100%,104%,123%,107%,96%,96.1%,102%,97.2%,99.4%,105%,97.5%,98.9%,,,,,,,,,,,,,,,,,,
CN[C@@H](C)C(=O)N[C@H]1CN(C(=O)CC(C)C)CC[C@H]2CC[C@@H](C(=O)NC(c3ccccc3)c3ccccc3)N2C1=O [AT-406] (10 nM),94.3%,104%,102%,105%,105%,103%,89.3%,97.8%,97.5%,99.7%,66.1%,96.7%,110%,95.5%,126%,99.5%,109%,99.9%,95.5%,,,,,,,,,,,,,,,,,,
CC(C)C[C@H](NC(=O)[C@@H](COC(C)(C)C)NC(=O)[C@H](Cc1ccc(O)cc1)NC(=O)[C@H](CO)NC(=O)[C@H](Cc1c[nH]c2ccccc12)NC(=O)[C@H](Cc1cnc[nH]1)NC(=O)[C@@H]1CCC(=O)N1)C(=O)N[C@@H](CCCNC(=N)N)C(=O)N1CCC[C@H]1C(=O)NNC(N)=O [Goserelin] (10 nM),98%,93.7%,101%,94.2%,102%,96.1%,102%,93.8%,98%,98.5%,99.4%,101%,119%,94%,92.5%,99.5%,94.6%,100%,99.2%,,,,,,,,,,,,,,,,,,
C=CCN(/C=C1/C(=O)O[C@H](COC)[C@@]2(C)C1=C(O)C(=O)C1=C2[C@H](OC(C)=O)C[C@]2(C)C(=O)CC[C@@H]12)CC=C [Sonolisib] (1000 nM),106%,99.8%,101%,107%,97.6%,102%,105%,105%,112%,110%,97.4%,102%,105%,103%,77.5%,99.2%,109%,99%,102%,95.1%,,104%,66.6%,112%,109%,97%,103%,115%,112%,102%,111%,104%,89.7%,109%,104%,82.6%,98.1%
C=CCN(/C=C1/C(=O)O[C@H](COC)[C@@]2(C)C1=C(O)C(=O)C1=C2[C@H](OC(C)=O)C[C@]2(C)C(=O)CC[C@@H]12)CC=C [Sonolisib] (10 nM),112%,106%,94.4%,109%,105%,101%,104%,102%,111%,95.1%,102%,101%,123%,102%,108%,97.9%,107%,106%,107%,,,,,,,,,,,,,,,,,,
